Measured values taken from PubChem BioAssay (NCI).
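The compound was tested at five concentrations on cells cultured in 96-well plates, with a 48-hour exposure period. GI50 is the concentration that inhibits growth by half. The concentration for full growth arrest is given as TGI.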

How the values were obtained:
Assay in all cases: growth of human tumour cells (NCI), 48 h
A498 renal = test system: A498 renal
SK-MEL-5 melanoma = test system: SK-MEL-5 melanoma
LOX IMVI melanoma = test system: LOX IMVI melanoma
NCI-H23 lung = test system: NCI-H23 lung
IGROV1 ovarian = test system: IGROV1 ovarian
HT29 colon = test system: HT29 colon
SNB-19 CNS = test system: SNB-19 CNS
MALME-3M melanoma = test system: MALME-3M melanoma
T-47D breast = test system: T-47D breast
SF-268 CNS = test system: SF-268 CNS

SMILES	GI50 (A498 renal) [µM]	TGI (A498 renal) [µM]	GI50 (SK-MEL-5 melanoma) [µM]	TGI (SK-MEL-5 melanoma) [µM]	GI50 (LOX IMVI melanoma) [µM]	TGI (LOX IMVI melanoma) [µM]	GI50 (NCI-H23 lung) [µM]	TGI (NCI-H23 lung) [µM]	GI50 (IGROV1 ovarian) [µM]	TGI (IGROV1 ovarian) [µM]	GI50 (HT29 colon) [µM]	TGI (HT29 colon) [µM]	GI50 (SNB-19 CNS) [µM]	TGI (SNB-19 CNS) [µM]	GI50 (MALME-3M melanoma) [µM]	TGI (MALME-3M melanoma) [µM]	GI50 (T-47D breast) [µM]	TGI (T-47D breast) [µM]	GI50 (SF-268 CNS) [µM]	TGI (SF-268 CNS) [µM]
COc1cc2c(c(OC)c1OC)-c1ccc(NNC(=S)N(Cc3cccc(C[N+](Cc4cccc(CNC56CC7CC(CC(C7)C5)C6)c4)(Cc4cccc(CNC56CC7CC(CC(C7)C5)C6)c4)Cc4cccc(CN(C(=S)NNc5ccc6c(cc5=O)[C@@H](NC(C)=O)CCc5cc(OC)c(OC)c(OC)c5-6)C56CC7CC(CC(C7)C5)C6)c4)c3)C34CC5CC(CC(C5)C3)C4)c(=O)cc1[C@@H](NC(C)=O)CC2 (stereo not given in full)	1.07	3.28	0.81	2.25	0.873	2.86	1.38	5.33	1.45	5.95	0.958	2.81	1.65	6.2	0.83	3.04	1.83	9.4	1.37	6.54
c1cc(C2CCCCC2)ccc1OCCCCCCN1CCNCC1	5.06	26.5	1.78	3.26	–	–	1.96	3.82	2.04	3.89	1.45	2.98	–	–	1.99	3.86	2.14	4.79	–	–
ON(CCc1ccncc1)Cc1ccccc1	–	> 100	–	> 100	–	> 100	–	> 100	–	> 100	–	> 100	–	> 100	–	> 100	–	> 100	–	> 100
O=CN1N=C(c2ccc(Nc3ccnc4cc(Cl)ccc34)cc2)CC1c1ccccc1 (stereo not given)	1.3	6.79	1.38	3.77	1.61	3.33	3.64	> 100	9.36	> 100	3.21	11.1	5.13	> 100	4.21	> 100	2.18	7.42	3.96	> 100
Cc1[nH]c(C(=O)Nc2ccc(C(=O)N3CCNCC3)cc2OC(C)C)c(Cl)c1Cl	11.2	24.7	1.73	3.13	1.77	3.25	1.95	4.21	1.58	3.49	1.76	3.26	1.89	3.95	1.59	3.05	1.91	4.62	1.85	3.81
CNc1nc(C)c(-c2nc(Nc3cccc(S(N)(=O)=O)c3)ncc2F)s1	< 0.0168	< 0.0308	0.0296	0.639	0.0223	3.94	0.0432	0.171	0.0349	12.3	0.0605	10.8	0.0273	14.1	0.0797	0.187	0.0274	0.472	0.0287	1.44
O=c1[nH]c(=O)n(C2CC(O)C(CO)O2)cc1C(OCC(F)(F)F)OCC(F)(F)F (stereo not given)	–	> 100	–	> 100	–	> 100	–	> 100	–	> 100	–	> 100	–	> 100	–	> 100	–	–	–	> 100
CS(=O)(=O)N(CCC#N)c1ccc(/C=N/NC(=O)CC(=O)Nc2cccc(Cl)c2)cc1	–	> 100	–	> 100	–	> 100	–	> 100	–	> 100	–	> 100	–	> 100	–	> 100	–	–	–	> 100
COc1ccc(C2=CC(c3cc(OC)c(OC)c(OC)c3)NC(=O)N2)cc1OC (stereo not given)	1.83	8.32	4.41	16.5	3.05	11.7	3.48	17.5	3.8	20.4	4.05	15.1	4.73	17	5.06	21.1	2.63	28.9	3.46	14.5
C=C1C(=O)O[C@H]2[C@H]1CC/C(CNS(=O)(=O)c1ccc3ccccc3c1)=C\CC[C@@]1(C)O[C@@H]21	10.2	21.8	2.89	9.67	1.43	2.77	2.03	6.14	2.87	8.2	1.94	3.91	12	26.7	1.94	4.59	1.92	4.64	2.72	10.1
O=C(O)CNS(=O)(=O)c1ccc(NC(=O)c2ccc(F)cc2)cc1	–	> 100	–	> 100	–	> 100	–	> 100	–	> 100	–	> 100	–	> 100	–	> 100	–	–	–	> 100
CCOCC(=O)N[C@H]1CCc2cc(OC)c(OC)c(OC)c2-c2ccc(SC)c(=O)cc21	–	1.49	–	< 0.01	–	69	–	9.64	–	> 100	–	–	–	> 100	–	> 100	–	> 100	–	> 90.9
C=C1C(=O)O[C@H]2[C@H]1CC/C(CNC(=O)/C=C/c1cccc(OC)c1)=C\CC[C@@]1(C)O[C@@H]21	1.82	5.85	1.69	3.18	1.28	2.63	1.67	3.35	1.96	5.3	1.22	2.81	3.22	13.5	1.48	3.3	–	–	2.29	6.69
N#CCCN(CCC#N)c1ccc(/C=C2\N=C(COc3ccc(Cl)cc3Cl)OC2=O)cc1	–	> 100	–	> 100	–	> 100	–	> 100	–	> 100	–	> 100	–	> 100	–	> 100	–	–	–	> 100
O=C(Cn1c(=O)c(-c2ccccc2)nc2ccccc21)c1cccnc1	–	–	> 100	> 100	> 100	> 100	> 100	> 100	> 100	> 100	> 100	> 100	> 100	> 100	> 100	> 100	> 100	> 100	> 100	> 100
